2 substances from patent US20240384268A1, “Oligonucleotides” (Hudson Institute of Medical Research, priority 2021, published 2024) can be followed below.

d = 2'-deoxy (DNA); m = 2'-O-methyl

The target in data set [1] is T1, cGAS (Homo sapiens, UniProt Q8N884). As to the kind of experiment: ISD70-driven IP-10 production in MG-63 cells. It counts as cell-based. Also noted: endogenous in cells. The following applies: indicated concentrations up to 500 nM, ~30 min, ISD overnight (FIG. 24).
Data set [2] has as its target T1, cGAS. Nature of the data set: ISD70-driven IP-10 production in HT-29 cells, ELISA. It counts as cell-based. Also noted: endogenous in cells. The following applies: 187.5 nM ASO overnight, ISD70 24 h.

T1 sequence (Q8N884 whole entry): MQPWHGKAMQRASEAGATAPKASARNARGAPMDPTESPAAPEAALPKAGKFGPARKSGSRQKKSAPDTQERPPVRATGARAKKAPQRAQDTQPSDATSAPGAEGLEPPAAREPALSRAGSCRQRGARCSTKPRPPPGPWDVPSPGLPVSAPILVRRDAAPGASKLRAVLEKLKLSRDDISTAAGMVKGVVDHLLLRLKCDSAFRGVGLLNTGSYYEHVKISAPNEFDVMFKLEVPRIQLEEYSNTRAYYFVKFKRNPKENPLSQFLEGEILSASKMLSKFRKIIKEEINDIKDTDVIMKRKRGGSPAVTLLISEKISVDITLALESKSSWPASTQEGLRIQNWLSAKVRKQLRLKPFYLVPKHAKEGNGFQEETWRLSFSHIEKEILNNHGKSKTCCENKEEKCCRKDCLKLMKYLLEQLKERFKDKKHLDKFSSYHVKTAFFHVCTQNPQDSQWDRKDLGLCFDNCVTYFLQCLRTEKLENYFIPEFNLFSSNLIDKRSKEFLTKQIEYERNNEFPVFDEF

As to “CGCTTTTCTGTCTGGT (antisense; LNA-modified, pattern not given here) [CTNN2B-311 LNA KL]”, the “IP-10 after ISD in MG-63, MOE and LNA ASOs (in words)” value in the data set with cGAS [1] is “did not inhibit IP-10 production”.
As to “mG*mC*mA*mG*mU*C*T*C*C*A*T*G*T*C*C*mC*mA*mG*mG*mC (GCAGUCTCCATGTCCCAGGC; antisense; sugars from the 5' end m5 d10 m5, all phosphorothioate, methylation of C not given here) [[CDKN2B-AS1]2234]”, the “inhibition of ISD70-dependent IP-10 production (in words)” value with cGAS [2] was “robustly inhibited ISD70-dependent IP-10 production”.
